Assay results from patent US20240400583A1, “TRICYCLIC SULFAMIDES AND SULTAMS” (Merck Sharp & Dohme LLC, priority 2021, published 2024).

Key:
[1] = molecular target: T1, DCAF15 (Homo sapiens, UniProt Q66K64, DEL276-383); experiment: DCAF15 Displacement Assay (displacement of probe PT7795, FRET); assay type: binding; settings: competition with 300 nM PT7795 on DDA1-DDB1ΔB-DCAF15Δpro triplex, 18 hours incubation, FRET 665/615
T1 construct: made in house; host or cells: Sf9 (baculovirus, Bac-to-Bac)
Source text: (§1) Proteins used for the assays were as follows: Human DDA1 (UniProt:Q9BW61), DDB1 (UniPro:Q16531), and DCAF15 (UniProt:Q66K64) coding sequences were cloned into pFastBac1 vectors and were co-expressed in Sf9 cells using Bac-to-Bac baculovirus expression system (Thermo Fisher Scientific). The expression construct for DCAF15 includes a N-terminal His6-tag to facilitate the purification. The atrophin-1 homology region of DCAF15 (amino acid residues 276-383) was excised (Apro, originally to facilitate crystallization). Triplex of DDA1-DDB1ΔB-DCAF15Apro, which has the BPB domain (aa 396 to 705) excised and replaced with a GNGNSG linker, was used in all the kinetic measurements because of the higher yield. R^1R^2 of RBM39 (aa 150 to 331; UniProt: Q14498) contained a C-terminal FLAG tag used in the DCAF15/RBM39 complex formation assay. DCAF15 Displacement Assay (Displacement FRET KD)
The previously described procedure was followed (See X. Du, et al., “Structural Basis and Kinetic Pathway of RBM39 Recruitment to DCAF15 by a Sulfonamide Molecular Glue E7820”, Structure, 27, 1625-1633.e3, 2019). Synthesis of the probe PT7795 is described in the article.
Binding of PT7795 to DDA1-DDB1ΔB-DCAF15Apro was measured by the FRET signal between europium-labeled anti-His antibody (AD0205, Perkin Elmer) that is associated with His-tagged DCAF15 and ALX647 moiety in PT7795. The concentration of PT7795 was varied from 2.3 nM to 1000 nM in 16 wells, each containing 25 mM HEPES pH7.5, 100 mM NaCl, 0.1 mg/ml BSA, 0.005% Tween 20, 0.5 mM TCEP, 4% DMSO, 0.5 nM europium-labeled anti-His antibody, and 10 nM triplex of DDA1-DDB1 DB-DCAF15 Apro. After equilibrating for 2-3 hours at 4° C., the plate was removed from the incubator, briefly spun, then read on a Spark 10 (Tecan) at the excitation/emission wavelength of 340 nm/615 nm and 340 nm/665 nm. To obtain Kd, the ratio of 665/615 readings was fitted to Equation 1, where F stands for the ratio of 665/615 […].
Binding of compounds in this disclosure to DCAF15 was measured in a competition by the displacement of PT7795. The concentration of PT7795 was kept at 300 nM while the concentration of a compound was varied from 0.01 to 100 μM. The incubation time was increased to 18 hours for enhanced signal to noise level. To obtain IC50, the ratio of 665/615 readings was fitted to Equation 2, where n is Hill slope.

[2] = molecular target: T2, DCAF15 RBM39 ternary complex (Homo sapiens, UniProt Q14498+Q66K64, DEL276-383); experiment: DCAF15 RBM39 Ternary Complex Formation Assay; assay type: binding; settings: apparent EC50 for compound-induced complex formation, 10 nM DCAF15 triplex, 50 nM RBM39 R1R2, FRET 665/615
T2 construct: RBM39 (aa 150 to 331; UniProt: Q14498); TEV cleavage site (pGEX4T3 vector); made in house; host or cells: Sf9 (baculovirus) for the triplex; E. coli for the RBM39 fragment according to b294
Source text: as §1
His-tagged DDA1-DDB1ΔB-DCAFISΔpro triplex and RIR2 with a C-terminal FLAG were used in the assay and compound-induced complex formation was monitored through resonance transfer between europium-labeled anti-His antibody and APC-labeled anti-FLAG antibody (AD0059F, Perkin Elmer).

Compound	IC50 [1] [nM]	EC50 [2] [nM]
COCCOCCCN1Cc2cc(Cl)c3c(Cl)c[nH]c3c2NS1(=O)=O [Compound 1, 6,7-dichloro-3-(3-(2-methoxyethoxy)propyl)-1,3,4,9-tetrahydro-[1,2,6]thiadiazino[4,3-g]indole 2,2-dioxide]	1420	12.7
COCCOCCOCCCN1Cc2cc(Cl)c3c(Cl)c[nH]c3c2NS1(=O)=O [Compound 2, 6,7-dichloro-3-(3-(2-(2-methoxyethoxy)ethoxy)propyl)-1,3,4,9-tetrahydro-[1,2,6]thiadiazino[4,3-g]indole 2,2-dioxide]	25000	247
COCCCCCOCCCN1Cc2cc(Cl)c3c(Cl)c[nH]c3c2NS1(=O)=O [Compound 3, 6,7-dichloro-3-(3-((5-methoxypentyl)oxy)propyl)-1,3,4,9-tetrahydro-[1,2,6]thiadiazino[4,3-g]indole 2,2-dioxide]	2500	21.4
CNC(=O)c1[nH]c2c3c(cc(Cl)c2c1Cl)CN(CC1CCCNC1)S(=O)(=O)N3 (stereo not drawn) [Compound 10, 6,7-dichloro-N-methyl-3-(piperidin-3-ylmethyl)-1,3,4,9-tetrahydro-[1,2,6]thiadiazino[4,3-g]indole-8-carboxamide 2,2-dioxide]	2090	> 25000
CNC(=O)c1[nH]c2c3c(cc(Cl)c2c1Cl)CN(CC1CCCN(C(=O)OC(C)(C)C)C1)S(=O)(=O)N3 (stereo not drawn) [Compound 11, tert-butyl 3-((6,7-dichloro-8-(methylcarbamoyl)-2,2-dioxido-4,9-dihydro-[1,2,6]thiadiazino[4,3-g]indol-3(1H)-yl)methyl)piperidine-1-carboxylate]	1440	> 25000
COCCCN1Cc2cc(Cl)c3c(Cl)c(C(=O)OC)[nH]c3c2NS1(=O)=O [Compound 13, methyl 6,7-dichloro-3-(3-methoxypropyl)-1,3,4,9-tetrahydro-[1,2,6]thiadiazino[4,3-g]indole-8-carboxylate 2,2-dioxide]	1300	> 25000
CCOC(=O)c1[nH]c2c3c(cc(Cl)c2c1Cl)CN(CCCOC)S(=O)(=O)N3 [Compound 14, ethyl 6,7-dichloro-3-(3-methoxypropyl)-1,3,4,9-tetrahydro-[1,2,6]thiadiazino[4,3-g]indole-8-carboxylate 2,2-dioxide]	2050	2510
CC(C)(C)OC(=O)N1CCCC(CN2Cc3cc(Cl)c4c(Cl)c(CCCC(N)=O)[nH]c4c3NS2(=O)=O)C1 (stereo not drawn) [Compound 22, tert-butyl 3-((8-(4-amino-4-oxobutyl)-6,7-dichloro-2,2-dioxido-4,9-dihydro-[1,2,6]thiadiazino[4,3-g]indol-3(1H)-yl)methyl)piperidine-1-carboxylate]	5780	> 25000

The remaining compounds from weak to strong by IC50 [1], led by results:

IC50 [1] [nM]	EC50 [2] [nM]	Compound
1280	> 25000	CNC(=O)c1[nH]c2c3c(cc(Cl)c2c1Cl)CN(CCCOC)S(=O)(=O)N3 [Compound 15, 6,7-dichloro-3-(3-methoxypropyl)-N-methyl-1,3,4,9-tetrahydro-[1,2,6]thiadiazino[4,3-g]indole-8-carboxamide 2,2-dioxide]
824	> 25000	COCCCN1Cc2cc(Cl)c3c(Cl)c(CCCC(N)=O)[nH]c3c2NS1(=O)=O [Compound 19, 4-(6,7-dichloro-3-(3-methoxypropyl)-2,2-dioxido-1,3,4,9-tetrahydro-[1,2,6]thiadiazino[4,3-g]indol-8-yl)butanamide]
679	> 25000	CNC(=O)c1[nH]c2c3c(cc(Cl)c2c1Cl)CN(CC1CCCN(C(C)=O)C1)S(=O)(=O)N3 (stereo not drawn) [Compound 12, 3-((1-acetylpiperidin-3-yl)methyl)-6,7-dichloro-N-methyl-1,3,4,9-tetrahydro-[1,2,6]thiadiazino[4,3-g]indole-8-carboxamide 2,2-dioxide]
652	> 25000	COCCCN1Cc2cc(Cl)c3c(Cl)c(CCCC(=O)O)[nH]c3c2NS1(=O)=O [Compound 18, 4-(6,7-dichloro-3-(3-methoxypropyl)-2,2-dioxido-1,3,4,9-tetrahydro-[1,2,6]thiadiazino[4,3-g]indol-8-yl)butanoic acid]
480	10.6	COCCCCC(=O)N1CCCC(CN2Cc3cc(Cl)c4c(Cl)c[nH]c4c3NS2(=O)=O)C1 (stereo not drawn) [Compound 7, 1-(3-((6,7-dichloro-2,2-dioxido-4,9-dihydro-[1,2,6]thiadiazino[4,3-g]indol-3(1H)-yl)methyl)piperidin-1-yl)-5-methoxypentan-1-one]
317	> 25000	COC(=O)CCCc1[nH]c2c3c(cc(Cl)c2c1Cl)CN(Cc1ccnc(O)c1)S(=O)(=O)N3 [Compound 24, methyl 4-(6,7-dichloro-3-((2-hydroxypyridin-4-yl)methyl)-2,2-dioxido-1,3,4,9-tetrahydro-[1,2,6]thiadiazino[4,3-g]indol-8-yl)butanoate]
277	> 25000	O=C(O)CCCc1[nH]c2c3c(cc(Cl)c2c1Cl)CN(CC1CCCNC1)S(=O)(=O)N3 (stereo not drawn) [Compound 23, 4-(6,7-dichloro-2,2-dioxido-3-(piperidin-3-ylmethyl)-1,3,4,9-tetrahydro-[1,2,6]thiadiazino[4,3-g]indol-8-yl)butanoic acid]
261	4.5	CC(C)(C)OC(=O)NCCCCC(=O)N1CCC(CN2Cc3cc(Cl)c4c(Cl)c[nH]c4c3NS2(=O)=O)CC1 [Compound 8, tert-butyl (5-(4-((6,7-dichloro-2,2-dioxido-4,9-dihydro-[1,2,6]thiadiazino[4,3-g]indol-3(1H)-yl)methyl)piperidin-1-yl)-5-oxopentyl)carbamate]
244	4.9	NCCCCC(=O)N1CCC(CN2Cc3cc(Cl)c4c(Cl)c[nH]c4c3NS2(=O)=O)CC1 [Compound 9, 5-amino-1-(4-((6,7-dichloro-2,2-dioxido-4,9-dihydro-[1,2,6]thiadiazino[4,3-g]indol-3(1H)-yl)methyl)piperidin-1-yl)pentan-1-one]
200	4.3	COCCOCC(=O)N1CCC(CN2Cc3cc(Cl)c4c(Cl)c[nH]c4c3NS2(=O)=O)CC1 [Compound 4, 1-(4-((6,7-dichloro-2,2-dioxido-4,9-dihydro-[1,2,6]thiadiazino[4,3-g]indol-3(1H)-yl)methyl)piperidin-1-yl)-2-(2-methoxyethoxy)ethan-1-one]
156	4.3	COCCCCC(=O)N1CCC(CN2Cc3cc(Cl)c4c(Cl)c[nH]c4c3NS2(=O)=O)CC1 [Compound 6, 1-(4-((6,7-dichloro-2,2-dioxido-4,9-dihydro-[1,2,6]thiadiazino[4,3-g]indol-3(1H)-yl)methyl)piperidin-1-yl)-5-methoxypentan-1-one]
105	> 25000	CC(=O)N1CCCC(CN2Cc3cc(Cl)c4c(Cl)c(CCCC(N)=O)[nH]c4c3NS2(=O)=O)C1 (stereo not drawn) [Compound 20, 4-(3-((1-acetylpiperidin-3-yl)methyl)-6,7-dichloro-2,2-dioxido-1,3,4,9-tetrahydro-[1,2,6]thiadiazino[4,3-g]indol-8-yl)butanamide]
98	7.8	COCCOCC(=O)N1CCCC(CN2Cc3cc(Cl)c4c(Cl)c[nH]c4c3NS2(=O)=O)C1 (stereo not drawn) [Compound 5, 1-(3-((6,7-dichloro-2,2-dioxido-4,9-dihydro-[1,2,6]thiadiazino[4,3-g]indol-3(1H)-yl)methyl)piperidin-1-yl)-2-(2-methoxyethoxy)ethan-1-one]
